Measurements as given in patent US20240424115A1, “LONG-ACTING INTERLEUKIN-15 RECEPTOR AGONISTS AND RELATED IMMUNOTHERAPEUTIC COMPOSITIONS AND METHODS” (Nektar Therapeutics, priority 2017, published 2024).

What was measured:
[1] = Single dose PK study in mice (plasma concentration); conditions: C57BL/6 mice, single i.v. 0.3 mg/kg
Procedure: C57BL/6 mice (n=3/group) were administered a single intravenous dose of IL-15 (control) at 0.3 mg/kg) or of Conjugate 2 at a dose of 0.3 mg/kg. Following administration, blood samples were collected at various time points post administration (24 hours, 48 hours, 78 hours, 96 hours). […] Finally, at each time point, plasma concentration of drug was determined.
For PK analysis, Conjugate 1 was administered as a single intravenous dose at 0.3 mg/kg in balb/c mice (n=3). Following administration, mice were humanely sacrificed and plasma was collected 24, 48, 72, 96, 120 and 144 hours post treatment. From a separate study, mice were administered a single intravenous dose of IL-15 (0.5 mg/kg). Samples from these mice were collected at the indicated time points within 6 hours of treatment.
Balb/c mice (n=3/group) were administered a single intravenous dose of IL-15 (500 ug/kg) or of Conjugate 1 at 10, 30, 100, 300 and 1000 μg/kg. Blood samples were collected at the indicated time points post administration (conjugate 1:24, 48, 72, 96, 120, 144, 240 hours; IL-15 control: 0.03, 0.08, 0.25, 0.5, 1, 2, 4, 6, 8, hours) and plasma concentration of drug was determined.

[2] = Single dose PK study in rats (plasma concentration); format: in vivo; conditions: rats, single i.v. 0.3, 0.15, 0.075 mg/kg or s.c. 0.15 mg/kg
Procedure: Following administration, blood was collected at days 1-7 post administration (with multiple samples collected over the first 24 hours following administration). […]

CD4, CD8, and NK cells [3] = assay: In vivo IL-15 signaling (STAT5 phosphorylation in lymphocytes) in non-human primates; design: species or system cynomolgus monkeys; conditions: cyno, single i.v. 0.5 mg/kg
Procedure: In the study, cynomolgus monkeys (cyno), one female and one male, were each intravenously administered a single dose of Conjugate 2 (0.5 mg/kg). A series of blood samples were taken from each animal both prior to treatment (day-6 and-1) and at multiple intervals following treatment for assessment by flow cytometry of STAT5 phosphorylation in various types of lymphocytes (CD4, CD8, and NK cells). Results are provided in FIGS. 9A (CD4), 9B (CD8), and 9C (NK).
(§1) Cynomolgus monkeys (n=3-4 males), were administered a single intravenous injection of Conjugate 1 at 0.003, 0.01, 0.1 mg/kg or a vehicle control. Blood samples were collected at the indicated time points pre and post dose (−5, −2, 1, 2, 3, 4, 5, 6, 7, 10, 14, 17 days) and subjected to flow cytometric analysis to examine pharmacodynamic effects within lymphocyte populations. Proliferation (% Ki-67) and JAK/STAT signaling (% pSTAT5) for NK cells, CD8 T cells, and CD4 T cells were examined, with the results shown in FIGS. 45A-C and FIGS. 46A-C, respectively.

CT-26 cells = assay: CT-26 lung metastasis model
Procedure: At day 0, 6-8 week-old female Balb/c mice were inoculated with 1×10^5 mouse CT-26 cells by tail vein injection. On day 1, post 24 h of CT-26 cells being administered, mice were divided into ten groups. […] Each group was assigned one intervention as follows: vehicle, phosphate buffered saline (Group A); native IL-15 alone (Group B); Conjugate 2 at a dose of 0.03 mg/kg (Group C); Conjugate 2 at a dose of 0.1 mg/kg (Group D); Conjugate 2 at a dose of 0.3 mg/kg (Group E); Conjugate 2 at a dose of 1.0 mg/kg (Group F); Conjugate 2 at a dose of 3.0 mg/kg (Group G); for Conjugate 1: vehicle, phosphate buffered saline (Group H); Conjugate 1 at a dose of 0.03 mg/kg (Group I) and Conjugate 1 at a dose of 0.3 mg/kg (Group J). Animals were dosed at days 1, 5, and 10.
Post 13 days from the date of CT-26 tumor cells administration, mice were anesthetized, and blood and spleen cells were collected for further analysis of immunophenotype markers, while lungs were fixed for 24-48 h in Bouins solution containing picric acid and formaldehyde.
The number of lung tumor nodules were counted under a dissection per each lung and mean of lung nodules for each group was determined. The statistical significance was also obtained between the vehicle group vs intervention groups using unpaired students t test.
Balb/c mice received tail vein injection of 1×10^5 CT-26 colorectal carcinoma cells. The following day, mice (n=9/group) were treated weekly, twice, with Conjugate 1 (0.03 or 0.3 mg/kg) or vehicle control. Five days after the second injection, mice were humanely sacrificed and lung nodules were counted.
CT-26 mice (n=7-11/group) were injected with anti-asialo GM1 to deplete NK cells or two different controls (lgG or PBS), then injected with 1×10^5 CT-26 tumor cells. Mice were then treated with Conjugate 2 at 0.3 mg/kg dosed on days 1, 5 and 10 post tumor cell injection or vehicle control. Mice were sacrificed and lung nodules were counted three days after the last day of treatment.

CD8 T cells = assay: Immunophenotypic markers in blood and spleen on Day 13 of the CT-26 lung metastasis study; format: in vivo, Balb/c mice
Procedure: Blood and spleenocytes were analyzed on Day 13 for the changes in the immunophenotypic markers using flow cytometry and marker antibodies conjugated with various fluorochromes. Conjugate 2 administered at 0.3, 1, and 3 mg/kg induced a dose-dependent increase of CD8 T cells 1.5, 2.5, and 3.3-fold versus vehicle in blood, respectively. Similar observations were made in spleen with increases of 1.3, 1.7, and 2.2-fold at 0.3, 1, and 3 mg/kg dose levels versus vehicle.

[4] = system: NK cells, CD8 T cells, CD4 T cells; assay: In vivo PD study in non-human primates: lymphocyte cell numbers and proliferation; design: species or system cynomolgus monkeys; conditions: cyno, single i.v. 500 μg/kg
Procedure: In the study, cynomolgus monkeys, one female and one male, were administered 500 μg/kg of Conjugate 2 intravenously. A series of blood samples were taken from each animal before treatment (day-6 and -1) and at multiple intervals following single dose treatment for assessment by flow cytometry of lymphocyte cell numbers (NK cells, CD8 T-cells, etc.) and activation.
NK cell counts were determined to assess the ability of exemplary Conjugate 2 to induce sustained NK cell proliferation in non-human primates; results are shown in FIGS. 16A and 16B. NK cells and their proliferation in blood from cynomolgus monkey were identified by flow cytometry. Acquisition and analysis of NK cells (CD45+ CD3− CD16+) and their proliferation status (CD45+CD3−CD16+ Ki67+) were conducted using BD FACS DIVA software. Absolute values for NK cells and proliferating NK cells were used to calculate % Ki67 positivity within the NK population. Pre and post-treatment values were plotted using Prism.
CD8 T cell counts were also determined as illustrated in FIG. 17 for each animal from pre-dose to 14 days post-administration. Specifically, CD8 T cells were defined as CD45+CD3+CD4−CD8+. Blood from the monkeys was also subject to immunophenotyping as previously described. In monkey, CD8 T cells increased in a sustained manner, an effect lasting for at least 10 days. This plot further exemplifies the ability of an exemplary long acting IL-15 receptor agonist, Conjugate 2, to induce proliferation and sustained increases in numbers of CD8 T-cells post-administration.
In monkey, CD8 TEM cells were defined as CD45+CD3+CD4−CD8+CD45Ra−CD197− and CD8 Tcm were defined as CD45+CD3+CD4−CD8+CD45Ra−CD197+. Immunophenotyping was conducted by flow cytometry with sample acquisition on DIVA software and data analysis on Flowjo software. Graphs were plotted using Prism. […] The figures indicate that both CD8 effector and central memory T cell populations proliferate in response to exemplary Conjugate 2.
In this study, cynomolgus monkeys (cyno), one female and one male, were each intravenously administered a single dose of Conjugate 1 (0.1 mg/kg). A series of blood samples were taken from each animal over a 14-day time course and subjected to flow cytometry analysis of various lymphocytes (CD8 T cells, Ki-67 percent positivity within total CD8, CD8 central memory T cells (TCM) and CD8 effector memory T cells (Tem), NK cells and Ki-67 percent positivity of NK cells).
as §1
In cynomolgus monkey, CD8 naïve and memory subpopulations were defined by CD45Ra, CD197 and CD95. […] Within the CD8 Tem, […] and Tscm populations, Conjugate 1 induced robust % Ki-67 expression in a dose dependent manner with detectable increases in proliferation marker positivity starting as early as day 2, reaching a maximum at day 5 and returning to baseline between days 10-14. The Ki-67 expression and kinetics within the CD8 populations support the sustained increase in CD8 T cell numbers shown in Example 27 and FIGS. 47A-D.

CD4, CD8, and NK cells [5] = assay: In vivo IL-15 signaling (STAT5 phosphorylation in lymphocytes) in mice; conditions: C57BL/6 mice, single i.v. 0.3 mg/kg
Description: Conventional approaches, such as those involving radiolabeling a compound, administering the compound in vivo, and determining its clearance, can be used to assess whether a compound proposed to be a long-acting, IL-15 R agonist is “long-acting” (i.e., has a clearance that is longer than that of IL-15 administered in the same in vivo system). For the purposes herein, the long acting nature of a long-acting IL-15 R agonist may be, and is typically determined using flow cytometry to measure STAT5 phosphorylation in lymphocytes at various time points after administration of the agonist to be evaluated in mice. As a reference, the signal is lost by around 24 hours with IL-15, but is sustained for a period greater than that for a long-acting IL-15 agonist.
Mice were dosed as described in Example 6 above to assess in-vivo signaling as assessed by degree of STAT5 phosphorylation. Degree of STAT5 phosphorylation in various lymphocytes (CD4, CD8, and NK cells) was assessed by staining whole blood for leukocyte surface markers and pSTAT5, followed by measurement by flow cytometry. Results are shown in FIGS. 8A and 8 B for IL-15 and for Conjugate 2, respectively.
[PK methods previously described herein].
STAT5 phosphorylation in CD4 T cells was determined by using a CD3+CD4+CD8-pSTAT5+ marker combination. FIG. 43 is a plot of pSTAT5 phosphorylation percent positivity within CD4 T cells over time (at 0.25, 1, 6, 24, 48, 72, 96 and 120 hours post administration) at a dose of 0.03 mg/kg (blue, solid squares) or 0.3 mg/kg (orange, solid circles). The vehicle over time (black) and pre-dose (open circles) levels are also shown.

IL-15Rα:Fc [6] = assay: SPR (BIAcore), IL-15Rα:Fc captured by immobilised goat anti-human Fc, KD from kd/ka
Sequence of IL-15Rα:Fc (Q13261 31-205): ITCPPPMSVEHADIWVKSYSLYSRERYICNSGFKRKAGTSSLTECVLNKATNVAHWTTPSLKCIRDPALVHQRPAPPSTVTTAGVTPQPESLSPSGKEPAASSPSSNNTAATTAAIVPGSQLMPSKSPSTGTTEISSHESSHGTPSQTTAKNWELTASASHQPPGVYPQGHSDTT
IL-15Rα:Fc [7] = assay: SPR (BIAcore), compared with unmodified IL-15
IL-15Rα:Fc [8] = assay: SPR (BIAcore), IL-15Rα:Fc captured by immobilised goat anti-human Fc, test article injected in 3-fold dilutions from 10 µM

N-(2-methoxyPEG-ethyl)-7-(4-((2-methoxyPEG-ethyl) amino)-4-oxobutyl)-9-ethyl-9 H-fluorene-4-carboxamide carbamate-IL-15 [Conjugate 2]
T1/2 [1]: 20 to 30 h | time with measurable concentrations in plasma [1]: greater than 1 week | exposure to drug [2]: sustained and dose-proportional exposure to drug | return of STAT5 phosphorylation to near pre-dose levels (CD4, CD8, and NK cells [3]): 5 to 10 days | efficacy (lung nodule inhibition) after NK cell depletion (CT-26 cells; 0.3 mg/kg days 1, 5, 10, anti-asialo GM1): abolished when mice lacked NK cells | reduction in lung metastases in comparison to vehicle (CT-26 cells; Example 13, i.v. days 1, 5, 10, dose not stated): 65% | increase of Bcl-2+MFI in CD8 (CD8 T cells; blood and spleen): ≤ 1.5 fold | increase of CD8 T cells versus vehicle (CD8 T cells; blood, 0.3 mg/kg): 1.5 fold | increase of CD8 T cells versus vehicle (CD8 T cells; blood, 1 mg/kg): 2.5 fold | increase of CD8 T cells versus vehicle (CD8 T cells; blood, 3 mg/kg): 3.3 fold | CD8 T cell proliferation (Ki-67) change compared to vehicle (CD8 T cells; blood, high dose 3 mg/kg): 5.3 fold | CD8 T cell proliferation (Ki-67) change compared to vehicle (CD8 T cells; blood, low dose 0.3 mg/kg): 1.7 fold | increase of CD8 T cells versus vehicle (CD8 T cells; spleen, 0.3 mg/kg): 1.3 fold | increase of CD8 T cells versus vehicle (CD8 T cells; spleen, 1 mg/kg): 1.7 fold | increase of CD8 T cells versus vehicle (CD8 T cells; spleen, 3 mg/kg): 2.2 fold | CD8 T cell proliferation (Ki-67) change compared to vehicle (CD8 T cells; spleen, high dose 3 mg/kg): 6.9 fold | CD8 T cell proliferation (Ki-67) change compared to vehicle (CD8 T cells; spleen, low dose 0.3 mg/kg): 2.5 fold | CD8 T cell proliferation (Ki-67) change compared to vehicle (CD8 T cells; spleen, mid dose 1 mg/kg): 5.7 fold | CD8 TEM and TCM cell counts [4]: induces a significant and sustained increase in CD8 effector and central memory T cell populations | NK cell proliferation (Ki67, cell counts) [4]: effective to induce sustained NK cell proliferation | duration of CD8 T cell increase [4]: at least 10 days | duration of in-vivo STAT5 phosphorylation activity in NK and CD8 cells (CD4, CD8, and NK cells [5]): > 72 h

mono-mPEG-SBA40K-IL-15 (Conjugate 1) (from UniProt P40933 49-162) (ligand)
Kd (IL-15Rα:Fc [6]): 0.209 nM | percent of the alpha receptor affinity of IL-15 retained (IL-15Rα:Fc [7]): 80% | koff (IL-15Rα:Fc [8]): 0.000103 s⁻¹ | kon (IL-15Rα:Fc [8]): 492000 M⁻¹ s⁻¹
